How the values were obtained:
Carbonic anhydrase 2 = Carbonic anhydrase 2 (Homo sapiens, UniProt P00918); experiment: hCA Activity Assay
Carbonic anhydrase 1 = Carbonic anhydrase 1 (Homo sapiens, UniProt P00915); experiment: hCA Activity Assay
Sequence of Carbonic anhydrase 1 (P00915 whole entry): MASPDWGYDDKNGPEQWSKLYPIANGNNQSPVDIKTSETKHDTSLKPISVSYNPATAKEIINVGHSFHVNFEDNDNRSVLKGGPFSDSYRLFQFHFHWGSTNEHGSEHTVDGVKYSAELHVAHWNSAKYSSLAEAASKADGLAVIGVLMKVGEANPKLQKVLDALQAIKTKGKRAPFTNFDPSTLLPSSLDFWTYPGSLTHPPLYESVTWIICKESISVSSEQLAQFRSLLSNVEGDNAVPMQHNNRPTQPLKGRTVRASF

Row | Ki (Carbonic anhydrase 2) | Ki (Carbonic anhydrase 1) | SMILES
1 | 130 nM | 55 nM | CC1(C)CC(=O)C2=C(C1)N(c1ccc(S(N)(=O)=O)cc1)C1=C(C(=O)CC(C)(C)C1)C2c1ccccn1 [4-(3,3,6,6-tetramethyl-1,8-dioxo-9-(pyridin-2-yl)-1,2,3,4,5,6,7,8-octahydroacridine-10(9H)-yl)benzenesulfonamide (6)]
2 | 35 nM | 220 nM | CC1(C)CCC2=C(C1=O)C(c1ccc(Cl)cc1Cl)C1=C(CCC(C)(C)C1=O)N2c1ccc(S(N)(=O)=O)cc1 [4-(9-(2,4-Dichlorophenyl)-2,2,7,7-tetramethyl 1,8-dioxo 1,2,3,4,5,6,7,8-octahydroacridine 10(9H)-yl)benzenesulfonamide (12)]
3 | 1.5 nM | 15 nM | COc1ccc(C2C3=C(CCCC3=O)N(c3ccc(S(N)(=O)=O)cc3)C3=C2C(=O)CCC3)c(OC)c1 [4-(9-(2,4-dimethoxyphenyl)-1,8-dioxo-1,2,3,4,5,6,7,8-octahydroacridine-10(9H)-yl) benzenesulfonamide (7)]
4 | 120 nM | 205 nM | COc1ccc(C2C3=C(CCC(C)(C)C3=O)N(c3ccc(S(N)(=O)=O)cc3)C3=C2C(=O)C(C)(C)CC3)cc1OC [4-(9-(3,4-Dimethoxyphenyl)-2,2,7,7-tetramethyl 1,8-dioxo 1,2,3,4,5,6,7,8-octahydroacridine 10(9H)-yl)benzenesulfonamide (11)]
5 | 95 nM | 135 nM | CC1(C)CCC2=C(C1=O)C(c1ccc(C#N)cc1)C1=C(CCC(C)(C)C1=O)N2c1ccc(S(N)(=O)=O)cc1 [4-(9-(4-Cyanophenyl)-2,2,7,7-tetramethyl 1,8-dioxo 1,2,3,4,5,6,7,8-octahydroacridine 10(9H)-yl)benzenesulfonamide (9)]
6 | 250 nM | 520 nM | CC1(C)CC(=O)C2=C(C1)N(c1ccc(S(N)(=O)=O)cc1)C1=C(C(=O)CC(C)(C)C1)C2c1ccc(C#N)cc1 [4-(9-(4-Cyanophenyl)-3,3,6,6-tetramethyl-1,8-dioxo-1,2,3,4,5,6,7,8-octahydroacridine-10(9H)-yl)benzenesulfonamide (4)]
7 | 125 nM | 45 nM | CC1(C)CCC2=C(C1=O)C(c1ccc(O)cc1)C1=C(CCC(C)(C)C1=O)N2c1ccc(S(N)(=O)=O)cc1 [4-(9-(4-Hydroxyphenyl)-2,2,7,7-tetramethyl 1,8-dioxo 1,2,3,4,5,6,7,8-octahydroacridine 10(9H)-yl)benzenesulfonamide (10)]
8 | 150 nM | 75 nM | COc1ccc(C2C3=C(CC(C)(C)CC3=O)N(c3ccc(S(N)(=O)=O)cc3)C3=C2C(=O)CC(C)(C)C3)cc1 [4-(9-(4-Methoxyphenyl)-3,3,6,6-tetramethyl-1,8-dioxo-1,2,3,4,5,6,7,8-octahydroacridine-10(9H)-yl)benzenesulfonamide (5)]
9 | 7 nM | 8.5 nM | COc1ccc(C2C3=C(CCCC3=O)N(c3ccc(S(N)(=O)=O)cc3)C3=C2C(=O)CCC3)cc1 [4-(9-(4-methoxyphenyl)-1,8-dioxo-1,2,3,4,5,6,7,8-octahydroacridine-10(9H)-yl)benzene sulfonamide (8)]
